Each structure is given as a SMILES string.

The subject of this test is immunoglobulin light chain protein WIL-FL T46L. The test is described as follows: Differential scanning fluorimetry (thermal shift) assay. Particulars: Table B; temperature shift [Tm]compound-[Tm]vehicle; recombinant WIL-FL T46L. The class given is binding.
Consider `Cc1cc(N2CC[C@](C)(c3ccccc3)C2)cn2nc(C34CC(CO3)C4CN3CCC(C(=O)O)CC3=O)nc12` (stereo partly shown) [Compound 490], for which the DSF result was “***** (>2.5° C.=*****)”.

Take `Cc1n[nH]c([C@H]2[C@H]3CO[C@]2(c2nc4c(C)cc(N5CC[C@](C)(c6ccccc6)C5)cn4n2)C3)n1` [Compound 491, 8-methyl-6-[(3R)-3-methyl-3-phenyl-pyrrolidin-1-yl]-2-[(1R,4S,5R)-5-(3-methyl-1H-1,2,4-triazol-5-yl)-2-oxabicyclo[2.1.1]hexan-1-yl]-[1,2,4]triazolo[1,5-a]pyridine]: the DSF entry is recorded as “***** (>2.5° C.=*****)”.

With `Cc1n[nH]c([C@@H]2[C@@H]3CO[C@@]2(c2nc4c(C)cc(N5CC[C@](C)(c6ccccc6)C5)cn4n2)C3)n1` [Compound 492, 8-methyl-6-[(3R)-3-methyl-3-phenyl-pyrrolidin-1-yl]-2-[(1S,4R,5S)-5-(3-methyl-1H-1,2,4-triazol-5-yl)-2-oxabicyclo[2.1.1]hexan-1-yl]-[1,2,4]triazolo[1,5-a]pyridine], the DSF entry is “***** (>2.5° C.=*****)”.

Regarding `Cc1nc(C2C3COC2(c2nc4c(C)cc(N5CC[C@](C)(c6ccccc6)C5)cn4n2)C3)n(C)n1` (stereo partly shown) [Compound 493], the DSF entry was “***** (>2.5° C.=*****)”.

With `Cc1cc(N2CC[C@](C)(c3ccccc3)C2)cn2nc(C34CC(CO3)C4c3ncn[nH]3)nc12` (stereo partly shown) [Compound 494], the DSF result is reported as “***** (>2.5° C.=*****)”.

As to `C[C@]1(c2ccccc2)CCN(c2cc(CO)c3nc(C45CC(CO4)C5C(N)=O)nn3c2)C1` (stereo partly shown) [Compound 495], the DSF entry is on record as “***** (>2.5° C.=*****)”.

On to `Cc1cc(N2CC[C@@](C)(n3ccc(C(F)(F)F)n3)C2)cn2nc(C34CC(CO3)C4c3nc(N)n[nH]3)nc12` (stereo partly drawn) [Compound 496, 5-(1-(8-methyl-6-((R)-3-methyl-3-(3-(trifluoromethyl)-1H-pyrazol-1-yl)pyrrolidin-1-yl)-[1,2,4]triazolo[1,5-a]pyridin-2-yl)-2-oxabicyclo[2.1.1]hexan-5-yl)-1H-1,2,4-triazol-3-amine], for which the DSF entry is given as “**** (>1.5-2.5° C.=****)”.

Consider `Cc1cc(N2CC[C@](C)(c3ccccc3)C2)cn2nc(C34CC(CO3)C4COC3CC4(C3)CN(c3ccnc(O)c3)C4)nc12` (stereo partly drawn) [Compound 497, 4-(6-((1-(8-methyl-6-((R)-3-methyl-3-phenylpyrrolidin-1-yl)-[1,2,4]triazolo[1,5-a]pyridin-2-yl)-2-oxabicyclo[2.1.1]hexan-5-yl)methoxy)-2-azaspiro[3.3]heptan-2-yl)pyridin-2-ol], for which the DSF entry is reported as “***** (>2.5° C.=*****)”.

With `COC(=O)NCC1C2COC1(c1nc3c(C)cc(N4CC[C@](C)(c5ccccc5)C4)cn3n1)C2` (stereo partly shown) [Compound 498], the DSF result was “***** (>2.5° C.=*****)”.

For `COc1ccc(OCC2C3COC2(c2nc4c(C)cc(N5CC[C@](C)(c6ccccc6)C5)cn4n2)C3)cn1` (stereo partly shown) [Compound 499], the DSF result is reported as “***** (>2.5° C.=*****)”.

As to `Cc1cc(N2CC[C@](C)(c3ccccc3)C2)cn2nc(C34CC(CO3)C4COc3ccc(=O)[nH]c3)nc12` (stereo partly shown) [Compound 500], the DSF result is given as “***** (>2.5° C.=*****)”.

Turning to `Cc1cc(N2CC[C@](C)(c3ccccc3)C2)cn2nc(C34CC(CO3)C4COC3CC4(CNC4)C3)nc12` (stereo partly shown) [Compound 501], the DSF entry is listed as “***** (>2.5° C.=*****)”.

As for `Cc1cc(N2CC[C@](C)(c3ccccc3)C2)cn2nc(C34CC(CO3)C4COC3CCN(c4ccnc(C(=O)O)c4)CC3)nc12` (stereo partly shown) [Compound 502], the DSF entry was “***** (>2.5° C.=*****)”.

Take `Cc1cc(N2CC[C@](C)(c3ccccc3)C2)cn2nc(C34CC(CO3)C4COC3CCN(c4cccc(C(=O)O)n4)CC3)nc12` (stereo partly shown) [Compound 503]: the DSF result was “***** (>2.5° C.=*****)”.

For `Cc1cc(N2CC[C@](C)(c3ccccc3)C2)cn2nc(C34CC(CO3)C4Cc3nnn[nH]3)nc12` (stereo partly shown) [Compound 504], the DSF entry is given as “***** (>2.5° C.=*****)”.

In the case of `Cc1cc(N2CC[C@](C)(c3ccccc3)C2)cn2nc(C34CC(CO3)C4Cc3nnc[nH]3)nc12` (stereo partly drawn) [Compound 505, 2-(5-((4H-1,2,4-triazol-3-yl)methyl)-2-oxabicyclo[2.1.1]hexan-1-yl)-8-methyl-6-((R)-3-methyl-3-phenylpyrrolidin-1-yl)-[1,2,4]triazolo[1,5-a]pyridine], the DSF entry was “***** (>2.5° C.=*****)”.

As to `Cc1cc(N2CC[C@](C)(c3ccccc3)C2)cn2nc(C34CC(CO3)C4CN3CC4C(C3)C4C(=O)O)nc12` (stereo partly drawn) [Compound 506, 3-((1-(8-methyl-6-((R)-3-methyl-3-phenylpyrrolidin-1-yl)-[1,2,4]triazolo[1,5-a]pyridin-2-yl)-2-oxabicyclo[2.1.1]hexan-5-yl)methyl)-3-azabicyclo[3.1.0]hexane-6-carboxylic acid], the DSF entry is “***** (>2.5° C.=*****)”.

In the case of `Cc1cc(N2CC[C@](C)(c3cccc(F)c3)C2)cn2nc(C34CC(CO3)C4N3CC4(CC4)NC3=O)nc12` (stereo partly drawn) [Compound 507, 6-(1-(6-((R)-3-(3-fluorophenyl)-3-methylpyrrolidin-1-yl)-8-methyl-[1,2,4]triazolo[1,5-a]pyridin-2-yl)-2-oxabicyclo[2.1.1]hexan-5-yl)-4,6-diazaspiro[2.4]heptan-5-one], the DSF entry is given as “***** (>2.5° C.=*****)”.

Take `Cc1cc(N2CC[C@](C)(c3cccc(F)c3)C2)cn2nc(C34CC(CO3)C4N)nc12` (stereo partly shown) [Compound 508]: the DSF entry is given as “***** (>2.5° C.=*****)”.

Take `Cc1cc(N2CC[C@](C)(c3ccccc3)C2)cn2nc(C34CC(CO3)C4N3CC4(COC4)NC3=O)nc12` (stereo partly drawn) [Compound 509, 7-(1-(8-methyl-6-((R)-3-methyl-3-phenylpyrrolidin-1-yl)-[1,2,4]triazolo[1,5-a]pyridin-2-yl)-2-oxabicyclo[2.1.1]hexan-5-yl)-2-oxa-5,7-diazaspiro[3.4]octan-6-one]: the DSF entry is “***** (>2.5° C.=*****)”.

`Cc1cc(N2CC[C@](C)(c3ccccc3)C2)cn2nc(C34CC(CO3)C4NCC3(N)COC3)nc12` (stereo partly drawn) [Compound 510, N-[(3-aminooxetan-3-yl)methyl]-1-[8-methyl-6-[(3R)-3-methyl-3-phenyl-pyrrolidin-1-yl]-[1,2,4]triazolo[1,5-a]pyridin-2-yl]-2-oxabicyclo[2.1.1]hexan-5-amine]: the DSF result is “***** (>2.5° C.=*****)”.

As for `Cc1cc(N2CC[C@](C)(c3ccccc3)C2)cn2nc(C34CC(CO3)C4N3CC4(CC(CO)C4)NC3=O)nc12` (stereo partly shown) [Compound 511], the DSF result is recorded as “***** (>2.5° C.=*****)”.

In the case of `Cc1cc(N2CC3(CCC3c3cccc(F)c3)C2)cn2nc(C34CC(CO3)C4N3CC4(CC4)NC3=O)nc12` (stereo not shown) [Compound 512, 6-[1-[6-[7-(3-fluorophenyl)-2-azaspiro[3.3]heptan-2-yl]-8-methyl-[1,2,4]triazolo[1,5-a]pyridin-2-yl]-2-oxabicyclo[2.1.1]hexan-5-yl]-4,6-diazaspiro[2.4]heptan-5-one], the DSF entry is recorded as “***** (>2.5° C.=*****)”.

Take `Cc1cc(N2CC[C@](C)(c3ccccc3Cl)C2)cn2nc(C34CC(CO3)C4N3CC4(CC4)NC3=O)nc12` (stereo partly drawn) [Compound 513, 6-[1-[6-[(3R)-3-(2-chlorophenyl)-3-methyl-pyrrolidin-1-yl]-8-methyl-[1,2,4]triazolo[1,5-a]pyridin-2-yl]-2-oxabicyclo[2.1.1]hexan-5-yl]-4,6-diazaspiro[2.4]heptan-5-one]: the DSF result is listed as “***** (>2.5° C.=*****)”.

Turning to `Cc1cc(N2CC[C@](C)(c3ccccc3)C2)cn2nc(C34CC(CO3)C4N3CC4(CNC4)NC3=O)nc12` (stereo partly shown) [Compound 515], the DSF entry is listed as “***** (>2.5° C.=*****)”.

Consider `Cc1cc(N2CC[C@](C)(c3ccccc3)C2)cn2nc(C34CC(CO3)C4N3CC4(CN(c5cccc(C(=O)O)n5)C4)NC3=O)nc12` (stereo partly shown) [Compound 516], for which the DSF result was “***** (>2.5° C.=*****)”.

For `Cc1cc(N2CC[C@](C)(c3ccccc3)C2)cn2nc(C34CC(CO3)C4N3CC4(CN(C(=O)C5CC[C@@H](C(=O)O)O5)C4)NC3=O)nc12` (stereo partly shown) [Compound 517], the DSF entry is listed as “***** (>2.5° C.=*****)”.

On to `COC(C)(CC(=O)N1CC2(C1)CN(C1C3COC1(c1nc4c(C)cc(N5CC[C@](C)(c6ccccc6)C5)cn4n1)C3)C(=O)N2)C(=O)O` (stereo partly shown) [Compound 518], for which the DSF result is on record as “***** (>2.5° C.=*****)”.

For the compound `Cc1cc(N2CC[C@](C)(c3ccccc3)C2)cn2nc([C@@]34C[C@@H](CO3)[C@H]4N3CC4(CN(c5cccc(C(=O)O)n5)C4)NC3=O)nc12` [Compound 519], the DSF entry was “***** (>2.5° C.=*****)”.

As for `Cc1cc(N2CC[C@](C)(c3ccccc3)C2)cn2nc([C@]34C[C@H](CO3)[C@@H]4N3CC4(CN(c5cccc(C(=O)O)n5)C4)NC3=O)nc12` [Compound 520], the DSF entry is “***** (>2.5° C.=*****)”.

As to `Cc1cc(N2CC[C@](C)(c3ccccc3)C2)cn2nc(C34CC(CO3)C4NCC3(N)CCOCC3)nc12` (stereo partly shown) [Compound 521], the DSF result is recorded as “***** (>2.5° C.=*****)”.

On to `Cc1cc(N2CC[C@](C)(c3ccccc3)C2)cn2nc(C34CC(CO3)C4N3CC4(CCOCC4)NC3=O)nc12` (stereo partly shown) [Compound 522], for which the DSF result is “***** (>2.5° C.=*****)”.

On to `Cc1cc(N2CC[C@](C)(c3ccccc3)C2)cn2nc([C@]34C[C@H](CO3)[C@@H]4N3CC4(CC4)NC3=O)nc12` [Compound 523], for which the DSF result is reported as “***** (>2.5° C.=*****)”.

Turning to `Cc1cc(N2CC[C@](C)(c3ccccc3)C2)cn2nc([C@@]34C[C@@H](CO3)[C@H]4N3CC4(CC4)NC3=O)nc12` [Compound 524], the DSF result is on record as “***** (>2.5° C.=*****)”.

In the case of `Cc1cc(N2CC[C@](C)(c3ccccc3)C2)cn2nc(C34CC(CO3)C4N3C[C@]4(CC[C@H](C(=O)O)CC4)NC3=O)nc12` (stereo partly shown) [Compound 525], the DSF entry was “***** (>2.5° C.=*****)”.

As to `Cc1cc(N2CC[C@](C)(c3ccccc3)C2)cn2nc(C34CC(CO3)C4N3C[C@]4(CC[C@@H](C(=O)O)CC4)NC3=O)nc12` (stereo partly shown) [Compound 526], the DSF entry is given as “***** (>2.5° C.=*****)”.

For `Cc1cc(N2CC[C@](C)(c3ccccc3)C2)cn2nc(C34CC(CO3)C4N3CCOCC3)nc12` (stereo partly drawn) [Compound 527, 4-(1-(8-methyl-6-((R)-3-methyl-3-phenylpyrrolidin-1-yl)-[1,2,4]triazolo[1,5-a]pyridin-2-yl)-2-oxabicyclo[2.1.1]hexan-5-yl)morpholine], the DSF result is “***** (>2.5° C.=*****)”.

For the origin of these results see patent US20260285857A1, “BICYCLIC AND HETEROCYCLIC AMIDE COMPOUNDS” (priority 2024, published 2026).
